These results are taken from US5310667A (priority 1989, dated 1994).

Values after ≈ are worked out from the molar mass of the structure shown. “Also recorded” adds a separate entry of the source.

In assay [1] the test system is E. coli strain JM101. In words: Growth on minimal medium plates with increasing glyphosate. It is filed as cell-based. Particulars: Escherichia coli, read-out: glyphosate concentration that inhibits endogenous EPSP synthase activity and growth on minimal media. An excerpt:
A multi-step screening procedure was used to identify glyphosate resistant variants of petunia EPSPS.

Assay [2] concerns MP4 cells. In words: Suspension culture of petunia cells in glyphosate medium. It counts as cell-based. Particulars: MS media containing 0.5 mM glyphosate (sodium salt); estimated; read-out: cells which survived, of the starting population. As for the experimental part:
The starting cell line, designated as the MP4 line, was derived from a Mitchell diploid petunia (see e.g., Ausubel 1980). The MP4 cells were suspended in Murashige and Skoog (MS) culture media, (GIBCO, Grand Island, N.Y.) All transfers involved dispensing 10 ml of suspension cultures into 50 ml of fresh media. Cultivation periods until the next transfer ranged from 10 to 14 days, and were based on visual indications that the culture was approaching saturation.
Approximately 10 ml of saturated suspension culture (containing about 5×10^6 cells) were transferred into 50 ml of MS media containing 0.5 mM glyphosate. The sodium salt of glyphosate was used throughout the experiments described herein. The large majority of cells were unable to reproduce in the presence of the glyphosate. The cells which survived (estimated to be less than 1% of the starting population) were cultured in 0.5 mM glyphosate and transferred to fresh media containing glyphosate every 10 to 14 days.

For assay [3], the system named is transformed petunia plants containing pMON546 (Chimeric EPSP). In words: Plant response to glyphosate spraying. It is filed as in vivo. Particulars: 0.8 #/acre acid equivalent, isopropylamine salt, sprayed. As for the experimental part: (§1) Four individual representative transgenic seedlings were selected, grown and tested in the testing procedure described below, along with four individual non-transformed (wild-type) petunia seedlings.
(§2) The plants were grown in a growth medium in a growth chamber at 26° C. with 12 hours of light per day. The plants were fertilized weekly with a soluble fertilizer and watered as needed. The plants were sprayed at a uniform and reproducible delivery rate of herbicide by use of an automated track sprayer. The glyphosate solution used was measured as pounds of glyphosate acid equivalents per acre, mixed as the glyphosate isopropylamine salt, with an ionic surfactant.
(§3) Four individual wild-type (non-transformed) petunia plants were selected for use as control plants. Four individual transformed plants containing the pMON546 vector were selected by kanamycin resistance as described by Horsch, et al. (1985).
(§4) The control plants and the transformed plants were sprayed with the isopropylamine salt of glyphosate at the application level listed in Table 2 below; the experimental results obtained are also summarized in Table 2.

Assay [4] relates to control petunia plants (wildtype or control vector pMON505). In words: Plant response to glyphosate spraying. Particulars: 0.8 #/acre acid equivalent, isopropylamine salt, sprayed. It counts as in vivo. As for the experimental part:
as §1, §2, §3, §4

Assay [5] has as its system bacteria harboring pMON342 or pMON9566 (double pL promoter, petunia EPSP synthase). Put plainly: Glyphosate tolerance of bacteria in growth media. It counts as cell-based, E. coli. Particulars: very high expression of the enzyme. As for the experimental part: The double pL promoter used to express the petunia EPSP synthase in pMON342 and pMON9566 leads to a very high level of expression of the enzyme. The enzyme is present at such high concentration that bacteria harboring either of these plasmids are tolerant to very high levels of glyphosate ([…]) in growth media, even though the enzyme produced by pMON342 is the wild type form. […] A plasmid for identifying such a promoter was constructed as follows: pMON9544, the precursor to pMON342, was digested with BamHI to remove the pL promoters, and was recircularized by ligation resulting in pMON362. The EcoRI fragment of pMON9556 containing the 3'-cDNA portion of the petunia EPSPS cDNA was then inserted into the EcoRI site of this plasmid reconstituting the entire coding sequence. The resulting plasmid, pMON364 is identical to pMON342 except that there is no promoter 5' of the EPSP synthase coding sequence.

Consider `O=C(O)CNCP(=O)(O)O` [glyphosate, N-phosphonomethylglycine], for which, in assay [1], the MIC was 2000 µM (≈ 338 µg/mL). The viability at 500 µM in assay [2] is under 1%. For the same molecule, the “Visual Appearance” value in assay [3] was “growing well; also recorded: healthy and viable”; in assay [4], “completely dead; also recorded: killed”. In addition, the “level of glyphosate tolerated in growth media” value in assay [5] was over 50 µM.
